Assay results taken from US20130236966A1, “NK-1 Receptor Mediated Delivery of Agents to Cells” (THE UNIVERSITY OF CHICAGO, priority 2007, published 2013).
Ends that are not written are not given here. Alexa555 = Alexa Fluor 555 thiol-reactive fluorophore

Key:
U87 glioblastoma cells [1] = assay: confocal microscopy of internalization in U87 glioblastoma cells; format: cell-based, human; conditions: FIG. 3b
Protocol: (§1) Cell lines: U87 human glioblastoma-astrocytoma epithelial-like cells (provided by Prof. Maciej S. Lesniak, University of Chicago Medical Center) were cultured in MEM with penicillin/streptomycin and 10% FBS. Normal human astrocytes (NHA) were purchased from Lonza and cultured in astrocyte growth media (Lonza) supplemented with rhEGF; Insulin, Ascorbic Acid, GA-1000, L-Glutamine and 5% FBS. HeLa cells (provided by Dr. Ronald Rock, University of Chicago) were grown in DMEM pencillin/streptomycin and with 10% FBS.
(§2) Confocal Microscopy: For each sample, 10^4 U87 cells were seeded on an 18 mm cover-slip in MEM with 10% FBS overnight in a 12-well plate, then starved in MEM with 0.1% BSA for 3 hrs. The reagent (SP-sAB conjugate, SP-Fluorophore or sAB only) was filter-sterilized, diluted to the desired final concentration in MEM 0.1% BSA and added directly to the live cells in each well for 2 hrs. Untreated cells served as a negative control. Following incubation with the reagent, the cells were washed with PBS and fixed in 4% p-formaldehyde. The cells were permeablized in TBS-Tween and blocked with 10% Normal Goat Serum for 1 hr. Actin filaments were stained with FITC-phalloidin (1:250 dilution), or TRITC-phalloidin (1:3000 dilution) for 1 hr at room temperature. Nuclei were stained with DAPI (10 μg/mL) or Hoechst reagent (Invitrogen, 1:2000) for 5 minutes at room temperature. […]

[2] = test system: normal human astrocytes (NHA); assay: confocal microscopy of internalization in normal human astrocytes; format: cell-based; conditions: FIG. 3c
Protocol: as §1, §2

[3] = test system: HeLa cells transfected with a plasmid coding for the NK-1 receptor; assay: confocal microscopy of NK-1 receptor-mediated internalization in transfected HeLa cells; format: cell-based, human
Protocol: (§3) NK-1 receptor transfection: A plasmid coding for the human NK-1 receptor in the mammalian expression vector pCDNA3(+) (provided by Dr. Robert Lefkowitz, Duke University) was transfected into HeLa cells using Lipofectamine 2000 according to manufacturer protocol, with 1 ng of the plasmid for each well containing 10^4 HeLa cells seeded on an 18 mm cover-slip in a 12-well plate.
Confocal Microscopy: For each sample, 10^4 U87 cells were seeded on an 18 mm cover-slip in MEM with 10% FBS overnight in a 12-well plate, then starved in MEM with 0.1% BSA for 3 hrs. The reagent (SP-sAB conjugate, SP-Fluorophore or sAB only) was filter-sterilized, diluted to the desired final concentration in MEM 0.1% BSA and added directly to the live cells in each well for 2 hrs. Untreated cells served as a negative control. Following incubation with the reagent, the cells were washed with PBS and fixed in 4% p-formaldehyde. The cells were permeablized in TBS-Tween and blocked with 10% Normal Goat Serum for 1 hr. Actin filaments were stained with FITC-phalloidin (1:250 dilution), or TRITC-phalloidin (1:3000 dilution) for 1 hr at room temperature. Nuclei were stained with DAPI (10 μg/mL) or Hoechst reagent (Invitrogen, 1:2000) for 5 minutes at room temperature. Samples were mounted using ProLong Gold reagent (Invitrogen). Confocal microscopy images were collected using a Leica SP2 with Alexa 488, Alexa 555 or Cy3 and […] or Cy5 excited with the 488 nm laser, the 543 nm laser and the 633 laser, respectively. Multicolored images were overlaid using the imageJ software.
The ability to specifically deliver functional biomolecular agents to living cells can be a powerful research tool for studying molecular processes. Introduction of the NK-1 receptor is sufficient for the uptake of fluorescently-labeled SP. […] HeLa cells transfected with a plasmid coding for the NK-1 receptor were incubated for 2 hours with 20 nM fluorescently-labeled SP. The cells were then stained with phalloidin for visualization of actin structure.

[4] = test system: HeLa cells transfected with the NK-1 receptor; assay: delivery of a polynucleotide encoding GFP; format: cell-based, human; conditions: 200 pM, FIG. 7
Protocol: as §3
To determine if other types of agents could also be delivered to cells expressing NK-1 receptors in accordance with the invention, HeLa cells transfected with the NK-1 receptor as described above, were incubated with an SP-polynucleotide conjugate. The polynucleotide encoded GFP operably linked to a promoter functional in the cells. The polynucleotide was also fluorescently tagged with Alexa-647 such that delivery of the polynucleotide into the cell could be monitored as well as expression of GFP.

U87 glioblastoma cells [5] = assay: MTS proliferation / cell viability assay; format: cell-based, human; conditions: 10 nM or 20 nM, 48 hrs, FIG. 5a
Protocol: MTS proliferation assay: U87 cells were seeded in 96-well plates at density 5000 cells/well in 0.1 mL of growth media. Cells were attached overnight and starved for 3 hours. Cells were stimulated with 20 nM sAB27-SP conjugate for 3, 5, 9, 24 and 48 hours, and SP or sAB27 alone for 48 hours in starving media. 20 μL of the MTS-based CellTiter 96 Aqueous One Solution reagent was added to each well. The plate was incubated in a humidified, 5% CO2 atmosphere until color was developed and the absorbance was recorded at 490 nm.
Due to the actin-bundling activity of sAB-27, its effect on the viability of U87 glioblastoma cells following SP-mediated delivery was investigated. Live U87 cells were treated with either 10 nM or 20 nM of the SP-sAB-27 conjugate and a cell viability assay was carried out at different time points up to 48 hrs after treatment. The viability of cells incubated with the conjugates was compared with that of cells treated with SP alone or sAB-27 alone, as well as untreated cells.

Substance: SP-Alexa555: variant of SP with a cysteine at position 3 carrying a thiol-reactive fluorophore; positive control for NK-1 receptor-mediated internalization (RPC(Alexa555)PQQFFGLM; ends and bridges not checked)
- internalization by U87 cells (U87 glioblastoma cells [1]; 100 nM (figure legend)): internalization
- internalization by U87 cells (U87 glioblastoma cells [1]; 200 nM, 2 hr): readily internalize
- internalization by NHA ([2]; 100 nM (figure legend)): no internalization was observed
- internalization by normal astrocytes ([2]; 200 nM, 2 hr): undetectable
- internalization by transfected cells ([3]; 20 nM, 2 hours, confocal microscopy): rapid internalization
- effect on actin structure ([3]; 100 nM, FITC-phalloidin, FIG. 2a,b): actin structure is unaffected

Substance: SP-polynucleotide conjugate: SP conjugated to an Alexa-647 tagged polynucleotide encoding GFP operably linked to a promoter (RPKPQQFFGLM; ends and bridges not checked; also: conjugated to Alexa-647 tagged GFP-encoding polynucleotide, site not given here; UniProt P20366 58-68, looked up)
- internalization of the Alexa-647 tagged polynucleotide ([4]; 2 hours): internalized after 2 hours
- localization of the internalized polynucleotide ([4]; 2 hours): at least a portion co-localized with the nucleus of the cell
- expression of GFP ([4]; 24 hours, confocal microscopy): expression of GFP after 24 hours

Substance: SP: 11-amino acid peptide that is rapidly internalized upon binding to the NK-1 receptor; used alone as control (RPKPQQFFGLM; ends and bridges not checked; UniProt P20366 58-68, looked up)
- cell viability (U87 glioblastoma cells [5]): no effect on viability
- localization with actin / effect on actin structure ([3]; 20 nM, phalloidin staining, FIG. 2): no specific localization with actin and no apparent effect on the structure of the actin filaments
